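Dose response: 5 concentrations. Exposure: 48 h. Format: 96-well plates. Endpoint: linear interpolation; highest concentration if not reached. At the GI50, growth is halved.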 The source made the active and inactive calls. Rule as the data show it: active = GI50 up to about 1.1 µM and inactive = higher. Residues, ends and D or L forms follow the SMILES beside them. *: point of attachment. Cbz = O=C(OCc1ccccc1)*
Assays:
Test in all cases: NCI anticancer screen, dose series, 48 h
DLD-1 = test system: DLD-1
HOP-18 = test system: HOP-18
M19-MEL = test system: M19-MEL
SNB-78 = test system: SNB-78
DMS-273 = test system: DMS-273
XF498 = test system: XF498
MDA-N = test system: MDA-N
T47D = test system: T47D
RXF 631 = test system: RXF 631

Row | SMILES | GI50 (DLD-1) | GI50 (HOP-18) | GI50 (M19-MEL) | GI50 (SNB-78) | GI50 (DMS-273) | GI50 (XF498) | GI50 (MDA-N) | GI50 (T47D) | GI50 (RXF 631)
1 | COc1ccc(-c2cc(O)c3cc(OC)ccc3n2)cc1 | > 100 µM (inactive) | > 100 µM (inactive) | > 100 µM (inactive) | > 100 µM (inactive) |  |  |  |  | 
2 | O=C1c2ccccc2C(=O)c2[nH]cnc21 | 27 µM (inactive) |  | 20.4 µM (inactive) | 41.3 µM (inactive) | 46.8 µM (inactive) | 32.7 µM (inactive) |  |  | 
3 | COC(=O)C(=O)C(C(=O)C(=O)Nc1ccc([N+](=O)[O-])cc1C#N)c1nc2ccc([N+](=O)[O-])cc2nc1O (centres undefined) | > 100 µM (inactive) | 34.8 µM (inactive) | > 100 µM (inactive) | > 100 µM (inactive) | > 100 µM (inactive) |  |  |  | 
4 | Nc1nc(-c2ccco2)cc(-c2ccc(CO)o2)n1 |  |  | > 100 µM (inactive) | > 100 µM (inactive) | > 100 µM (inactive) | > 100 µM (inactive) |  |  | 
5 | CCOC(=O)C1Cc2[nH]c3ccccc3c2C(C)C1C (centres undefined) | 15.8 µM (inactive) |  |  | 19.4 µM (inactive) | 15.1 µM (inactive) | 16.7 µM (inactive) |  |  | 
6 | CN(C)CCCNC(=O)c1cc(NC(=O)CCCn2c3ccccc3c3ccccc32)cn1C |  |  |  |  |  |  | 35.1 µM (inactive) | 19.1 µM (inactive) | 
7 | COC(=O)c1ccc2c(c1)S/C(=C/c1ccc3ccc4cccc5ccc1c3c45)S2 |  |  |  |  |  |  | 52.5 µM (inactive) | > 100 µM (inactive) | 
8 | N=C(N)c1ccc(/C=C/c2ccc(C(=N)N)cc2)cc1 |  |  |  |  |  |  | > 100 µM (inactive) | > 100 µM (inactive) | 
9 | C1OCN2c3nonc3N3COCN4c5nonc5N1C2C43 (centres undefined) |  |  |  |  |  |  | 62.8 µM (inactive) | > 100 µM (inactive) | 
10 | CCOC(=O)/C=C/C1=C(Br)[C@@]2(C)CC[C@@H]3c4ccc(O)cc4CC[C@H]3[C@@H]2C1 |  |  |  |  |  |  | 13.8 µM (inactive) | 4.86 µM (inactive) | 
11 | CCOC(=O)c1ccc(/N=N/c2cc(C(=O)OCC)ccc2O)cc1 | > 100 µM (inactive) | > 100 µM (inactive) | > 100 µM (inactive) |  | > 100 µM (inactive) | 2.13 µM (inactive) |  |  | 
12 | CC(=O)OC1c2ccccc2CCCCCCC12OCCO2 (centres undefined) | > 100 µM (inactive) | > 100 µM (inactive) |  | > 100 µM (inactive) |  |  |  |  | 
13 | CC(=O)OCCOCNC(=S)N/N=C/c1ccc(Br)s1 | > 81.8 µM (inactive) | > 100 µM (inactive) | > 100 µM (inactive) | > 100 µM (inactive) | > 87.7 µM (inactive) | > 100 µM (inactive) |  |  | 
14 | CCOC(=O)N1CCN(Cc2cc(=O)n3ccc(C)cc3n2)CC1 |  |  |  |  |  |  | > 100 µM (inactive) | > 100 µM (inactive) | 
15 | COc1ccc(/C=C/NC=O)cc1 |  |  |  |  |  |  | > 100 µM (inactive) | > 100 µM (inactive) | 
16 | CS(=O)(=O)N(CCC#N)c1ccc(/C=N/NC(=O)CC(=O)Nc2cccc(Cl)c2)cc1 | > 100 µM (inactive) | > 100 µM (inactive) | > 100 µM (inactive) | > 100 µM (inactive) | > 100 µM (inactive) |  |  |  | 
17 | O=C1C[C@@H]2[C@@H](c3ccccc3)[C@@H]3C(=O)c4ccccc4NC(=O)[C@H]3[C@]2(O)c2ccccc2N1 |  |  | > 100 µM (inactive) | > 100 µM (inactive) | > 100 µM (inactive) | > 100 µM (inactive) |  |  | 
18 | C/C(=N\NC(=S)N1CCN(c2ccccn2)CC1)c1ncccn1 | 0.00272 µM (active) | 1.64 µM (inactive) | 0.638 µM (active) | 6.05 µM (inactive) | 0.0114 µM (active) | 0.0247 µM (active) | 6.93 µM (inactive) | 0.0953 µM (active) | 

Row | SMILES | GI50 (DLD-1) | GI50 (HOP-18) | GI50 (M19-MEL) | GI50 (SNB-78) | GI50 (DMS-273) | GI50 (XF498) | GI50 (MDA-N) | GI50 (T47D) | GI50 (RXF 631)
19 | Cc1cc(NS(=O)(=O)c2ccc(Nc3c4ccccc4nc4c(C(=O)N5CCN(CCO)CC5)cccc34)cc2)no1 | > 100 µM (inactive) | > 100 µM (inactive) | > 100 µM (inactive) | > 100 µM (inactive) | > 100 µM (inactive) | > 100 µM (inactive) |  |  | 
20 | CCN(CC)CCOc1ccc(/C=C(\C#N)c2ccc(OCCN(CC)CC)cc2)cc1 | 19.5 µM (inactive) | 25.6 µM (inactive) | 14.8 µM (inactive) | 20.5 µM (inactive) | 13.6 µM (inactive) | 13.4 µM (inactive) |  |  | 
21 | Cc1ccc(S(=O)(=O)N(CC(O)COc2ccccc2)c2c(F)c(F)c(F)c(F)c2F)cc1 (centres undefined) |  |  |  |  |  |  | 15.6 µM (inactive) | 18 µM (inactive) | 
22 | CCOC(=O)CSc1nc(N)c2c(-c3ccccc3)c3c(nc2n1)CCCC3 |  |  |  |  |  |  | > 100 µM (inactive) | > 100 µM (inactive) | 
23 | CCCn1c(SCCSc2c3ccccc3c(-c3nc(F)nc(F)n3)n2CCC)c2ccccc2c1-c1nc(F)nc(F)n1 | 20.5 µM (inactive) | > 100 µM (inactive) |  | > 100 µM (inactive) | > 100 µM (inactive) |  |  |  | 
24 | NCCN1C(=O)C2C3c4ccccc4C(c4ccccc43)C2C1=O (centres undefined) | > 100 µM (inactive) | > 100 µM (inactive) | > 100 µM (inactive) | > 100 µM (inactive) | > 100 µM (inactive) |  |  |  | 
25 | Cc1cc(-c2ccccc2)nc(Nc2nc3ccccc3o2)n1 | > 100 µM (inactive) |  | > 100 µM (inactive) | > 100 µM (inactive) |  | > 100 µM (inactive) |  |  | 
26 | O=[N+]([O-])C1=Cc2c(O)ccc(O)c2C2c3ccccc3NC12 (centres undefined) |  |  |  |  |  |  | 18.3 µM (inactive) | 7.03 µM (inactive) | 
27 | CCOC(=O)C(C(N)=O)C1=Nc2cc([N+](=O)[O-])ccc2N/C1=C\C(=O)c1ccccc1 (centres undefined) |  |  |  |  |  |  | 18.7 µM (inactive) | 26 µM (inactive) | 
28 | CS(=O)(=O)c1nc(N)nc2nc[nH]c12 | > 100 µM (inactive) | > 100 µM (inactive) | > 100 µM (inactive) | > 100 µM (inactive) | > 100 µM (inactive) | > 100 µM (inactive) |  |  | 
29 | CC(=O)CC(=O)Nc1ccccc1[N+](=O)[O-] | > 100 µM (inactive) | > 100 µM (inactive) | > 100 µM (inactive) | > 100 µM (inactive) | > 100 µM (inactive) | > 100 µM (inactive) |  |  | 
30 | C[C@@H]1C[C@](O)([C@@H](C)Cl)C(=O)O[C@@H]2CCN3CC=C(COC(=O)[C@]1(C)O)[C@H]23 |  |  |  |  |  |  | > 100 µM (inactive) | > 100 µM (inactive) | 
31 | COc1cc([C@@H]2c3cc4c(cc3[C@@H](NCc3ccccc3F)C3COC(=O)[C@@H]32)OCO4)cc(OC)c1O (some centres undefined) | 11.9 µM (inactive) | > 100 µM (inactive) | 3.47 µM (inactive) | 25.8 µM (inactive) | 1.21 µM (inactive) |  |  |  | 2.18 µM (inactive)
32 | CO[C@]12CCC(=O)N1C=Cc1c2[nH]c2ccccc12 | > 100 µM (inactive) | > 100 µM (inactive) | > 100 µM (inactive) | > 100 µM (inactive) |  |  |  |  | 
33 | Cc1nc2c(o1)/C(=N\c1ccccc1)c1nc(C)oc1/C2=N/c1ccccc1 | 25.5 µM (inactive) | 17.3 µM (inactive) | 21.6 µM (inactive) | > 100 µM (inactive) | 20 µM (inactive) | 18 µM (inactive) |  |  | 
34 | C[C@H](CCC(=O)NCCS(=O)(=O)O)[C@H]1CC[C@H]2[C@@H]3[C@H](O)C[C@@H]4C[C@H](O)CC[C@]4(C)[C@H]3CC[C@]12C |  |  |  |  |  |  | > 100 µM (inactive) | > 100 µM (inactive) | 
35 | [N-]=[N+]=NC(CCl)c1cn([C@H]2C[C@H](O)[C@@H](CO)O2)c(=O)[nH]c1=O (some centres undefined) | > 100 µM (inactive) | > 100 µM (inactive) | > 100 µM (inactive) | > 100 µM (inactive) | > 100 µM (inactive) |  |  |  | 
36 | CC(NC(=O)C(NC(=O)OCc1ccccc1)C(C)C)C(=O)NCC(=O)O (stereo not drawn) (Cbz-Val-Ala-Gly-OH; configuration not given here) |  |  |  |  |  |  | > 100 µM (inactive) | > 100 µM (inactive) | 

Source: ChEMBL document CHEMBL1201862, “PubChem BioAssay data set” (2004)
